Where “and” joins values, the source holds several entries; their conditions need not be identical. Identical values can stand only once. Counter-ions that a name gives are not always drawn. Like-named read-outs stand apart in the source and are kept apart here.
Columns and labels:
HCoV-OC43 = assay: OC43 CPE assay in Huh-7 cells (neutral red uptake); format: cell-based, Human coronavirus OC43; conditions: for Raw OD - Absorbance 490 nm: infected Huh-7, neutral red uptake, individual replicate; for EC50: Betacoronavirus 1, OC43, 144 h, 6 days, neutral red uptake
[1] = tested on: HCoV-OC43 (Betacoronavirus 1); assay: microbe, parasite or virus in culture; format: cell-based; conditions: for EC50: read-out: Efficacy
H292 cells (NCI-H292) = assay: Cytotoxicity in uninfected H292 cells (MTT)
[2] = tested on: alpha coronavirus 229E (CoV-229E); assay: Inhibition of CoV-229E-induced CPE in MRC-5 cells (XTT); conditions: CPE reduction, CoV-229E in MRC-5 cells, 6 days
in vitro [3] = conditions: human
Huh-7 cells = assay: Cytotoxicity / viability of uninfected Huh-7 cells (XTT); conditions: for Viability of Huh-7 Cells (A490): 6 days, individual raw data; for Viability (A490): cytotoxic control, raw data, Huh-7
[4] = as above; conditions: human, uninfected Huh-7 cells
in vitro [5] = conditions: human; remark: listed apart in the source
[6] = Betacoronavirus 1, OC43, NCI-H292, 144 h
[7] = CC50, uninfected H292 cells, MTT, 6 days
[8] = Betacoronavirus 1, OC43, Huh-7, 0.01 μM, average ± SD of duplicates, read-out: Inhibition of OC43 Virus-Induced CPE in Huh-7 Cells
[9] = Betacoronavirus 1, OC43, Huh-7, 0.04 μM, average ± SD of duplicates, read-out: Inhibition of OC43 Virus-Induced CPE in Huh-7 Cells
[10] = Betacoronavirus 1, OC43, Huh-7, 0.12 μM, average ± SD of duplicates, read-out: Inhibition of OC43 Virus-Induced CPE in Huh-7 Cells
[11] = Betacoronavirus 1, OC43, Huh-7, 0.4 μM, average ± SD of duplicates, read-out: Inhibition of OC43 Virus-Induced CPE in Huh-7 Cells
[12] = Betacoronavirus 1, OC43, Huh-7, 1.1 μM, average ± SD of duplicates, read-out: Inhibition of OC43 Virus-Induced CPE in Huh-7 Cells
[13] = Betacoronavirus 1, OC43, Huh-7, 10 μM, average ± SD of duplicates, read-out: Inhibition of OC43 Virus-Induced CPE in Huh-7 Cells
[14] = Betacoronavirus 1, OC43, Huh-7, 30 μM, average ± SD of duplicates, read-out: Inhibition of OC43 Virus-Induced CPE in Huh-7 Cells
[15] = Betacoronavirus 1, NCI-H292, 144 h, EC50, HCoV-OC43-infected H292 cells, MTT, 6 days

## CCN(CC)CCCC(C)Nc1ccnc2cc(Cl)ccc12 (stereo not drawn) [Chloroquine]
HCoV-OC43; 6-day assay, Huh-7 cells
  prevention of virus-induced CPE: potently prevented the virus-induced CPE
HCoV-OC43; Betacoronavirus 1, OC43, Huh-7, read-out: Inhibition of OC43 Virus-Induced CPE in Huh-7 Cells, 5 μM, control inhibitor, relative to uninfected cells (mock)
  inhibition at 5 µM: ~88%
[1]; [6]
  EC50: 400 nM
[1]; 6 days
  antiviral effect against β-coronavirus OC43 in H292 cells: antiviral effect
H292 cells (NCI-H292); [7]
  Cytotoxicity: 46.04 µM
[2]
  EC50: 490 nM

## COc1ncccc1-c1cnn2ccc(N3CCN(C(=O)OC4(C)COC4)CC3)nc12 [Compound 1, 3-methyloxetan-3-yl-4-(3-(2-methoxypyridin-3-yl)pyrazolo[1,5-a]pyrimidin-5-yl)piperazine-1-carboxylate]
In vitro [3]
  viability at 6 days, 0.01 µM: 96.9 ± 0.8%
  viability at 6 days, 0.04 µM: 100.4 ± 0.7%
  viability at 6 days, 0.12 µM: 91.4 ± 1.8%
  viability at 6 days, 0.37 µM: 88.8 ± 2.2%
  viability at 6 days, 1.1 µM: 104 ± 2.9%
  viability at 6 days, 3.3 µM: 113 ± 4.4%
  viability at 6 days, 10 µM: 117 ± 4.5%
  viability at 6 days, 30 µM: 111 ± 5.3%
  viability at 6 days, 90 µM: 57.1 ± 4.9%
HCoV-OC43; 0.01 μM, listed as Compd. 1
  Raw OD - Absorbance 490 nm: 0.102 and 0.108
HCoV-OC43; 0.04 μM, listed as Compd. 1
  Raw OD - Absorbance 490 nm: 0.100 and 0.097
HCoV-OC43; 0.12 μM, listed as Compd. 1
  Raw OD - Absorbance 490 nm: 0.092 and 0.094
HCoV-OC43; 0.4 μM, listed as Compd. 1
  Raw OD - Absorbance 490 nm: 0.087 and 0.096
HCoV-OC43; 1.1 μM, listed as Compd. 1
  Raw OD - Absorbance 490 nm: 0.102 and 0.104
HCoV-OC43; 3.3 μM, listed as Compd. 1
  Raw OD - Absorbance 490 nm: 0.105 and 0.103
HCoV-OC43; 10 μM, listed as Compd. 1
  Raw OD - Absorbance 490 nm: 0.115 and 0.117
HCoV-OC43; 30 μM, Huh-7 cells, likely due to compound-induced toxicity
  antiviral effect at 30 μM: disappeared
HCoV-OC43; 30 μM, listed as Compd. 1
  Raw OD - Absorbance 490 nm: 0.076 and 0.072
HCoV-OC43; Huh-7 cells
  EC50: > 30000 nM
HCoV-OC43; [8]
  inhibition at 0.01 µM: -0.2 ± 0.6%
HCoV-OC43; [9]
  inhibition at 0.04 µM: -0.8 ± 0.4%
HCoV-OC43; [10]
  inhibition at 0.12 µM: -1.7 ± 0.2%
HCoV-OC43; [11]
  inhibition at 0.4 µM: -1.9 ± 0.8%
HCoV-OC43; [12]
  inhibition at 1.1 µM: -0.2 ± 0.2%
HCoV-OC43; Betacoronavirus 1, OC43, Huh-7, 3.3 μM, average ± SD of duplicates, read-out: Inhibition of OC43 Virus-Induced CPE in Huh-7 Cells
  inhibition at 3.3 µM: 0%
HCoV-OC43; [13]
  inhibition at 10 µM: 1.8 ± 0.3%
HCoV-OC43; [14]
  inhibition at 30 µM: -4.5 ± 0.5%
[1]; [15]
  EC50: 9310 nM
[1]; 6 days
  antiviral effect against β-coronavirus OC43 in H292 cells: significant antiviral effect
[1]; HCoV-OC43 infected, FIG. 6
  viability of infected H292 cells: increased with increased concentrations
H292 cells (NCI-H292); [7]
  Cytotoxicity: >300 µM
H292 cells (NCI-H292); with increased concentrations, FIG. 6
  viability of uninfected H292 cells: did not change significantly
Huh-7 cells; 0.01 μM, XTT, listed as Compd. 1
  Viability of Huh-7 Cells (A490): 0.724 and 0.716
Huh-7 cells; 0.04 μM, XTT, listed as Compd. 1
  Viability of Huh-7 Cells (A490): 0.748 and 0.941
Huh-7 cells; 0.12 μM, XTT, listed as Compd. 1
  Viability of Huh-7 Cells (A490): 0.673 and 0.691
Huh-7 cells; 0.37 μM, XTT, listed as Compd. 1
  Viability of Huh-7 Cells (A490): 0.675 and 0.654
Huh-7 cells; 1.1 μM, XTT, listed as Compd. 1
  Viability of Huh-7 Cells (A490): 0.758 and 0.786
Huh-7 cells; 3.3 μM, XTT, listed as Compd. 1
  Viability of Huh-7 Cells (A490): 0.807 and 0.850
Huh-7 cells; 10 μM, XTT, listed as Compd. 1
  Viability of Huh-7 Cells (A490): 0.878 and 0.834
Huh-7 cells; 30 μM, XTT, listed as Compd. 1
  Viability of Huh-7 Cells (A490): 0.844 and 0.792
Huh-7 cells; 90 μM, XTT, listed as Compd. 1
  Viability of Huh-7 Cells (A490): 0.421 and 0.469
[2]
  EC50: > 10000 nM

## CC[C@H]1CN2CCc3cc(OC)c(OC)cc3[C@@H]2C[C@@H]1C[C@H]1NCCc2cc(OC)c(OC)cc21 [Emetine]
[4]
  cytotoxicity at 6 days, 5 μM: > 90%
  viability at 6 days, 1 µM: 18.3 ± 0.3%
  viability at 6 days, 5 µM: 8.2 ± 0.7%
Huh-7 cells; 1 μm
  Viability (A490): 0.176 and 0.179
Huh-7 cells; 5 μm
  Viability (A490): 0.104 and 0.111
Huh-7 cells; tested at 5 μM, XTT
  inhibition of cell viability: more than 90%

## CCC(CC)COC(=O)[C@H](C)N[P@](=O)(OC[C@H]1O[C@@](C#N)(c2ccc3c(N)ncnn23)[C@H](O)[C@@H]1O)Oc1ccccc1 [Remdesivir]
[1]; [6]
  EC50: 37500 nM
H292 cells (NCI-H292); [7]
  Cytotoxicity: >20 µM
[2]
  EC50: 130 nM
In vitro [5]
  CC50 at 6 days: > 2000 nM

## CCN(CC)CCNC(=O)c1c(C)[nH]c(/C=C2\C(=O)Nc3ccc(F)cc32)c1C [Sunitinib maleate, sunitinib malate]
In vitro [3]
  CC50 at 6 days: 13000 nM
  viability at 6 days, 0.01 µM: 92 ± 7.2%
  viability at 6 days, 0.04 µM: 100 ± 1.3%
  viability at 6 days, 0.12 µM: 99.1 ± 3.4%
  viability at 6 days, 0.37 µM: 101 ± 3.4%
  viability at 6 days, 1.1 µM: 89.7 ± 1.1%
  viability at 6 days, 3.3 µM: 82.6 ± 4.2%
  viability at 6 days, 10 µM: 72 ± 1.1%
  viability at 6 days, 30 µM: 0.8 ± 0.3%
  viability at 6 days, 90 µM: 0.4 ± 0.1%
HCoV-OC43; 0.01 μM
  Raw OD - Absorbance 490 nm: 0.120
HCoV-OC43; 0.04 μM
  Raw OD - Absorbance 490 nm: 0.094
HCoV-OC43; 0.4 μM
  Raw OD - Absorbance 490 nm: 0.086 and 0.090
HCoV-OC43; 1.1 μM
  Raw OD - Absorbance 490 nm: 0.094
HCoV-OC43; 3.3 μM
  Raw OD - Absorbance 490 nm: 0.312 and 0.136
HCoV-OC43; 10 μM
  Raw OD - Absorbance 490 nm: 0.214 and 0.280
HCoV-OC43; 30 μM
  Raw OD - Absorbance 490 nm: 0.051 and 0.053
HCoV-OC43; Huh-7 cells
  EC50: > 30000 nM
HCoV-OC43; Betacoronavirus 1, OC43, Huh-7, read-out: Inhibition of OC43 Virus-Induced CPE in Huh-7 Cells
  inhibition at 3.3 µM: 17.9 ± 18.5%
HCoV-OC43; [8]
  inhibition at 0.01 µM: 1.1 ± 1.9%
HCoV-OC43; [9]
  inhibition at 0.04 µM: -1.2 ± 0.4%
HCoV-OC43; [10]
  inhibition at 0.12 µM: -0.1 ± 0.4%
HCoV-OC43; [11]
  inhibition at 0.4 µM: -2.4 ± 0.4%
HCoV-OC43; [12]
  inhibition at 1.1 µM: -1 ± 0.8%
HCoV-OC43; [13]
  inhibition at 10 µM: 21.4 ± 7%
HCoV-OC43; [14]
  inhibition at 30 µM: -7.8 ± 0.2%
Huh-7 cells; 0.01 μM, XTT
  Viability of Huh-7 Cells (A490): 0.721 and 0.651
Huh-7 cells; 0.04 μM, XTT
  Viability of Huh-7 Cells (A490): 0.738 and 0.751
Huh-7 cells; 0.12 μM, XTT
  Viability of Huh-7 Cells (A490): 0.719 and 0.752
Huh-7 cells; 0.37 μM, XTT
  Viability of Huh-7 Cells (A490): 0.732 and 0.765
Huh-7 cells; 1.1 μM, XTT
  Viability of Huh-7 Cells (A490): 0.676 and 0.665
Huh-7 cells; 3.3 μM, XTT
  Viability of Huh-7 Cells (A490): 0.642 and 0.601
Huh-7 cells; 10 μM, XTT
  Viability of Huh-7 Cells (A490): 0.543 and 0.554
Huh-7 cells; 30 μM, XTT
  Viability of Huh-7 Cells (A490): 0.058 and 0.055
Huh-7 cells; 90 μM, XTT
  Viability of Huh-7 Cells (A490): 0.053 and 0.054

## CCN(CC)CCNC(=O)c1c(C)[nH]c(/C=C2\C(=O)Nc3ccc(F)cc32)c1C [Sunitinib]
[1]; [15]
  EC50: 406 nM
H292 cells (NCI-H292)
  Cytotoxicity: 10 to 50 µM
In vitro [5]; uninfected MRC-5 cells
  CC50 at 6 days: 1320 nM

Source: patent publication US11666575B2, “Pyrazolo[1,5]pyrimidine-based compounds and methods of their use to treat viral infections” (Lexicon Pharmaceuticals, Inc., priority 2020, dated 2023)
